Data: paper PMC9965539, “Adverse Toxic Effects of Tyrosine Kinase Inhibitors on Non-Target Zebrafish Liver (ZFL) Cells” (International Journal of Molecular Sciences, 2023)
Where two headings read alike, the source gives them in different places.

Columns and labels:
[1] = MTS assay, viability of ZFL cells; type: cell-based, zebrafish; settings: zebrafish, ZFL cells (zebrafish liver cell line), ZFL cells, read-out: IC50 for TKIs Cytotoxicity (95% Confidence Interval); for IC50 at 24 h: 24 h exposure; for IC50 at 48 h: 48 h exposure; for IC50 at 72 h: 72 h exposure
Procedure: (§1) The viability of ZFL cells after 24, 48, and 72 h of exposure to TKIs was determined using the tetrazolium-based (MTS) assay (Cell Titer 96 AQueous Non-Radioactive Cell Proliferation Assay; Promega, Madison, WI, USA) as previously described by Novak et al.. Cells were seeded in 96-well microtiter plates (Corning Costar Corporation, New York, NY, USA) at a density of 7000 cells/well. […] Three independent experiments were performed, each with five replicates per treatment point. The statistical significance between the treated groups and the solvent control was determined by Student’s t-test using GraphPad Prism V6 (GraphPad Software, La Jolla, CA, USA). *** (p < 0.001)was considered statistically significant.

[2] = test system: zebrafish liver cells (ZFL); assay: MTS assay, viability of ZFL cells; type: cell-based; settings: 24, 48, 72 h; dose- and time-dependent; ERL and NIL up to their maximum solubility
Procedure: as §1

[3] = test system: zebrafish liver cells (ZFL); assay: Propidium iodide live/dead staining by flow cytometry; type: cell-based
Procedure: Benzo[a]pyrene (50 μM), an indirect-acting genotoxic agent which requires metabolic activation for its genotoxic effects, and etoposide (0.17 μM), a direct-acting genotoxic agent, were selected as positive controls. After 72 h, floating and adherent cells were collected, resuspended in ice-cold 1x PBS, and immediately analyzed. Propidium iodide (PI) at a final concentration of 1 μg/mL was added to the cells 5 min before the start of measurements using the MACSQuant Analyzer 10 flow cytometer (Miltenyi Biotech, Bergisch Gladbach, Germany). MASCQuantifiy software (Miltenyi Biotech, Bergisch Gladbach, Germany) was used to quantify PI negative and positive cells. The experiments were repeated three times independently. Statistical significance between the treated groups and control was determined by one-way ANOVA with post hoc multiple comparison Dunett’s test using GraphPad Prism V6 (GraphPad Software, La Jolla, CA, USA). * p < 0.05 was considered statistically significant.

[4] = test system: zebrafish liver cells (ZFL); assay: Cell cycle analysis with flow cytometry; type: cell-based; settings: 72 h; for effect on cell cycle progression: concentration-dependent, parallel decrease in S-phase fraction
Procedure: ZFL cells were seeded onto T25 culture plates at a density of 450,000 cells for 24 h. […] The positive control was etoposide (0.17 μM), which is known to arrest cells in the G2/M phase of the cell cycle. After 72 h, cells were trypsinized (0.25% trypsin-EDTA) and washed with 1x PBS before fixation in 4% paraformaldehyde (PFA). For flow cytometric analysis, fixed cells were washed in cold 1x PBS and stained with Hoechst 33258 dye (diluted in 0.1% Triton X-100 1:500) as described by Stampar et al.. Flow cytometric measurements were performed using a MACSQuant Analyzer 10 and the experiment was repeated three times independently. Each time, 20,000 single cells were recorded per experimental point. The data obtained were analyzed using FlowJo V10 software (Becton Dickinson, Franklin Lakes, NJ, USA). Statistical analysis for cell cycle was performed by the two-way ANOVA with Fisher’s LSD test using GraphPad Prism V6 (GraphPad Software, La Jolla, CA, USA). * p < 0.05, ** (p < 0.01), *** (p < 0.001) were considered statistically significant.

[5] = test system: zebrafish liver cells (ZFL); assay: Micronucleus detection by flow cytometry; type: cell-based; settings: 72 h
Procedure: ZFL cells were seeded onto 24-well culture plates (Nunclon) at a density of 35,000 cells per well for 24 h. […] Etoposide (0.17 μM and 0.68 μM) was used as a positive control. After 72 h, cells were placed on ice for 20 min, and subsequently a 0.05 mg/mL EMA solution was added to each well. The cells were placed on ice for 30 min and exposed to light for photoactivation of the EMA fluorochrome. Afterwards, cells were washed and resuspended in lysis solution (0.584 mg/mL NaCl, 1 mg/mL sodium citrate, and 0.3 μL/mL Triton X-100) containing 0.2 μM SYTOX Green and 0.25 mg/mL RNAse A, and incubated for 1 h in the dark at 37 °C. After incubation, lysis solution (85.6 mg/mL sucrose and 15 mg/mL citric acid) containing 0.2 μM SYTOX Green was added to the wells of the plate and incubated for a further 30 min at room temperature in the dark. Cells were analyzed on the same day using MACSQuant Analyzer 10 flow cytometer. MASCQuantify Software 2.11. was used to analyze each sample, and the percentage of micronuclei was determined after the acquisition of a total of 20,000 gated nuclei events, excluding EMA-positive events. One-way ANOVA with post hoc multiple comparison Dunett’s test using GraphPad Prism V6 (GraphPad Software, Carlsbad, CA, USA) was carried out. * p < 0.05 and *** p < 0.0001 were considered statistically significant.

[6] = test system: primary rat hepatocytes; settings: cited from earlier work
[7] = test system: primary human hepatocytes; settings: cited from earlier work
[8] = test system: HepG2 cells; settings: 20 μM; ref Mingard et al. 46; cited from earlier work
[9] = test system: certain target cancer cells; set-up: method as in ref 56, 57 (DAS), 58, 59 (REG); settings: in vitro; 57 (DAS), 58, 59 (REG); cited from earlier work
[10] = test system: targeted and non-targeted human chronic myeloid leukemia cancer cells; set-up: method as in doi:10.1182/blood.V124.21.5510.5510; settings: therapeutic concentrations (NIL 48 h); cited from earlier work
[11] = test system: mammalian cells; set-up: method as in EMEA documents (69); settings: ref EMEA documents (69); cited from earlier work
[12] = test system: rats; set-up: method as in EMEA documents (69); settings: ref EMEA documents (69); cited from earlier work
[13] = test system: Huh-7 cells; set-up: method as in PMID 32397371; settings: 48 h exposure; cited from earlier work
[14] = test system: HepG2 cells; set-up: method as in PMID 32397371; settings: 48 h exposure; cited from earlier work
[15] = test system: Huh-7 cells; settings: 72 h; cited from earlier work
[16] = test system: human colon adenocarcinoma HT-29 cell line; settings: 16 uM for 12 h; cited from earlier work
[17] = test system: HepG2 cells; set-up: method as in PMID 32913557; settings: 1 µM for 24 h; cited from earlier work
[18] = test system: Huh7, A549 and MCF-7 cells; settings: cited from earlier work
[19] = test system: liver of male albino rats; set-up: method as in ref 64 = [64]; 64. Diab A.A.A. El-aziz S.A.A. Hendawy A.A. Hamza R.Z. Salim D.M.M. Protective Effect of Antioxidants Combinations (Vit A, C, E and Selenium) (Antox Drug) against Oxidative Stress and Cellular Toxicit; settings: 10 mg/kg body weight daily for two weeks; cited from earlier work
[20] = test system: mice; set-up: method as in EMEA documents (69); settings: ref EMEA documents (69); cited from earlier work
[21] = test system: human hepatocellular carcinoma SMMC-7721 cells; settings: approximately 5 μM, 24 h; cited from earlier work
[22] = test system: human hepatocellular carcinoma SK-HEP-1 cells; settings: approximately 10 μM, 24 h; cited from earlier work
[23] = test system: Swiss albino mice; settings: cited from earlier work

## Cc1nc(Nc2ncc(C(=O)Nc3c(C)cccc3Cl)s2)cc(N2CCN(CCO)CC2)n1 [DAS, dasatinib]
[1]
  IC50 at 24 h: 0.64 µM
  IC50 at 48 h: 0.24 µM
  IC50 at 72 h: 0.16 µM
[2]
  viability of the ZFL cells: reduced
[3]; all tested DAS concentrations (0.015-0.06 μM), 72 h
  FSC/SSC dot plot shift, apoptosis: induction of apoptosis
[3]; lowest DAS concentration (0.015 μM), 72 h
  exposed cells degraded: more than 50%
[4]
  concentration that induced G0/G1 cell cycle arrest with decrease in number of cells in S phase: 0.03 µM
  effect on cell cycle progression: arrest of the cell cycle in the G0/G1 phase
[5]; 0.015 μM
  MNi in representative dot plot: increased amount of MNi
[5]; 0.03 μM
  MNi in representative dot plot: increased amount of MNi
[5]; 0.06 μM
  MNi in representative dot plot: low amount of nuclei and MNi
[6]; 48 h exposure, read-out: 50% growth inhibition
  IC50: 21.1 µM
[6]
  cytotoxicity: cytotoxic only to primary rat hepatocytes
[7]
  cytotoxicity: not to primary human hepatocytes
[8]
  apoptosis: induced apoptosis
[9]
  DNA damage assessed by comet assay: induce DNA damage
[10]
  centromere positive micronuclei: increased the number of centromere positive micronuclei
[11]
  structural chromosomal aberrations: increased the number of structural chromosomal aberrations
[12]
  in vivo micronucleus assay: negative

## CNC(=O)c1cc(Oc2ccc(NC(=O)Nc3ccc(Cl)c(C(F)(F)F)c3)cc2)ccn1 [SOR, sorafenib]
[1]
  IC50 at 24 h: 6.93 µM
  IC50 at 48 h: 3.36 µM
  IC50 at 72 h: 2.71 µM
[2]
  viability of the ZFL cells: reduced
[3]; 72 h exposure, low concentrations
  percentage of PI negative cells: did not significantly decrease
[4]
  concentration that induced G0/G1 cell cycle arrest with decrease in number of cells in S phase: 1 µM
  effect on cell cycle progression: arrest of the cell cycle in the G0/G1 phase
[5]; non-cytotoxic concentrations
  MNi frequency: did not significantly increase
[6]; 24 h, read-out: IC50
  IC50: 5.46 µM
[7]; 24 h
  IC50: 10 µM
[13]
  concentration with significant change in cell viability: 2 µM
[14]
  concentration with significant change in cell viability: 5 µM
[15]
  concentration with cell cycle arrest: 3.7 µM
[16]
  DNA double strand breaks (neutral comet assay): did not significantly increase DNA double strand breaks
[17]
  DNA strand breaks (alkaline comet assay): did not significantly increase
[18]
  DNA damage in vitro: induced DNA damage
[19]
  DNA damage in liver (comet assay in vivo): induced DNA damage
[11]
  structural chromosomal aberrations: increased the number of structural chromosomal aberrations
[20]
  in vivo micronucleus assay: negative
[21]
  MNi formation: did not increase MNi formation
[22]
  MNi formation: did not increase MNi formation
[23]
  increase in MNi formation: approximately 10 fold
